Assay results from PMC10747822 (Pharmaceutics, 2023).
Where a SMILES comes first, the peptide text is derived from it. [ ]: non-standard residue; d: D form. The star is where a group is joined. NH(4-amidinobenzyl) = N=C(N)c1ccc(CN*)cc1

What was measured:
PACE4 = settings: cited from earlier work
Source text: PACE4 is a calcium-dependent serine endoprotease, which has been identified as a potential therapeutic target in prostate cancer. Recently, an efficient inhibitory peptide for PACE4 has been reported, Ac-[D-Leu]LLLRVK-amba, which inhibits PACE4 with low nanomolar affinity. Such high affinity was achieved by optimizing the previously discovered multi-Leu peptide by inserting a […] acetylated D-leucine and replacing the […] arginine with a decarboxylated variant, a 4-amidinobenzylamide (amba) moiety.

[1] = Autosampler (extract) stability; type: physicochemical; settings: 24 h in autosampler
Method: Blood samples for calibration and QC purposes were generated through the addition of 25 µL of the pertinent spike solution to 20 µL of blank blood and the subsequent addition of 25 µL of IS solution. Calibration samples were produced at 10, 30, 100, 300, 1000, 3000, and 10,000 ng/mL, and QC samples were produced at concentrations of 10, 30, 3750, and 7500 ng/mL. For study sample processing, 20 µL of each sample was added to 25 µL of IS solution, and 25 µL of ACN/H2O 1/1 + 0.1% FA was added for volume compensation to ensure that sample preparation matches that of study blood samples. For stability reasons, each sample was immediately depleted from proteins by adding 150 µL ACN including 0.1% FA. Samples were processed individually and kept frozen until processing. Subsequently, samples were centrifuged at 13,200× g for 5 min. From the extracts, 10 µL was transferred to 400 µL of ACN/H2O 1/19 + 0.1% FA in wells of a 96-well collection plate (Waters, Milford, MA, USA).
The instrumental setup comprised an Acquity UPLC® Classic System coupled to a Xevo TQ-S triple-stage quadrupole mass spectrometer, which was equipped with a Z-spray heated electrospray ionization (ESI) source (Waters, Milford, MA, USA). […] This yielded an optimal cone voltage of 30 V and collision energy of 10 V. The monitored mass transitions were m/z 343.3 → 436.9 for Ac-[D-Leu]LLLRVK-amba and m/z 345.6 → 440.4 for the IS.
The applicable recommendations for bioanalytical method validation of the FDA and EMA were applied to the validation of the assay. Accuracy was calculated as the percentage of the ratio of the mean of the determined concentrations and the nominal concentration. The acceptance limit is 100 ± 15%, with the exception of the LLOQ where it is 100 ± 20% Q. The assay precision was calculated as the coefficient of variation of the determined sample concentrations. […] Recovery of the whole blood extraction process was calculated from peak areas of QC samples divided by the peak areas obtained from blank blood spiked with the respective amount after processing. […]

[2] = Bench-top stability in mouse plasma; type: in vitro ADME; settings: mouse plasma anti-coagulated with Li-heparin, minimally diluted, room temperature
Method: To investigate peptide stability, minimally diluted plasma or blood samples were generated through the addition of 10 µL of a spiking solution (50,000 ng/mL) to 490 µL of the pertinent biological matrix, resulting in a sample concentration of 1000 ng/mL. Samples (withdrawal of duplicates of 20 µL) were measured immediately after preparation and again after 1 and 2 h. Stability was evaluated via the comparison of peak area ratios of analyte and IS.
To determine which biological matrix is best suited for pharmacokinetic experiments in mice, we investigated the bench-top stability of Ac-[D-Leu]LLLRVK-amba in plasma and fresh whole blood at room temperature over a 2 h period (Figure 3). In plasma, anti-coagulated with Li-heparin, Ac-[D-Leu]LLLRVK-amba was very rapidly degraded.

autosampler (extract) stability, Accuracy [%] ([1]; QC A): 98.3% | autosampler (extract) stability, Accuracy [%] ([1]; QC B): 99.7% | autosampler (extract) stability, Accuracy [%] ([1]; QC C): 97.5% | half-life at 1000 ng/mL ([2]; CD-1, 1 µg/mL (1000 ng/mL), sampled at 0, 1 and 2 h, duplicates of 20 µL, UPLC-MS/MS peak area ratio analyte/IS, read-out: calculated half-life (t1/2) in plasma (converted)): 28.8 min | calculated half-life (t1/2) in plasma ([2]; 1 µg/mL, 0, 1 and 2 h, duplicates, UPLC-MS/MS, same value given in min): 29 min
SMILES: CC(=O)N[C@H](CC(C)C)C(=O)N[C@@H](CC(C)C)C(=O)N[C@@H](CC(C)C)C(=O)N[C@@H](CC(C)C)C(=O)N[C@@H](CCCNC(=N)N)C(=O)N[C@H](C(=O)N[C@@H](CCCCN)C(=O)NCc1ccc(C(=N)N)cc1)C(C)C [Ac-[D-Leu]LLLRVK-amba] (Ac-[dL]LLLRVK-{NH(4-amidinobenzyl)})
affinity of PACE4 inhibition (PACE4): low nanomolar
